This experiment relates to L1210 leukemia ip in BDF1 mice, survival T/C. Kind of experiment: NCI In Vivo Anticancer Drug Screen. Data for tumor model L1210 Leukemia (intraperitoneal) in B6D2F1 (BDF1) mice. As to conditions: endpoint: mean survival time, higher = longer survival. The method, boiled down: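 Survival endpoint. Drug-treated group vs vehicle group, expressed as T divided by C. Tumor passaged by transplantation.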

[1] abbreviates: dose: 100.0 mg/kg/injection, schedule: Q04DX003 (ip), vehicle: Klucel (hydroxypropylcellulose) (HPC).
The mark [2] stands for this setting: dose: 200.0 mg/kg/injection, schedule: Q04DX003 (ip), vehicle: Klucel (hydroxypropylcellulose) (HPC).
Where [3] appears, read: dose: 400.0 mg/kg/injection, schedule: Q04DX003 (ip), vehicle: Klucel (hydroxypropylcellulose) (HPC).
[4] abbreviates: dose: 100.0 mg/kg/injection, schedule: Q04DX003 (ip), vehicle: saline with Tween-80.
Where [5] appears, read: dose: 200.0 mg/kg/injection, schedule: Q04DX003 (ip), vehicle: saline with Tween-80.
Where [6] appears, read: dose: 400.0 mg/kg/injection, schedule: Q04DX003 (ip), vehicle: saline with Tween-80.
Setting [7] is: dose: 50.0 mg/kg/injection, schedule: Q01DX009 (ip), vehicle: saline with Tween-80.
[8] abbreviates: dose: 100.0 mg/kg/injection, schedule: Q01DX009 (ip), vehicle: saline with Tween-80.
Setting [9] is: dose: 200.0 mg/kg/injection, schedule: Q01DX009 (ip), vehicle: saline with Tween-80.
Where [10] appears, read: dose: 100.0 mg/kg/injection, schedule: Q01DX009 (ip), vehicle: Klucel (hydroxypropylcellulose) (HPC).
[11] abbreviates: dose: 50.0 mg/kg/injection, schedule: Q01DX001 (ip), vehicle: saline.
Where [12] appears, read: dose: 50.0 mg/kg/injection, schedule: Q01DX001 (ip), vehicle: carboxymethylcellulose (CMC).
Where [13] appears, read: dose: 100.0 mg/kg/injection, schedule: Q01DX001 (ip), vehicle: carboxymethylcellulose (CMC).
[14] abbreviates: dose: 200.0 mg/kg/injection, schedule: Q01DX001 (ip), vehicle: carboxymethylcellulose (CMC).
[15] abbreviates: dose: 400.0 mg/kg/injection, schedule: Q01DX001 (ip), vehicle: carboxymethylcellulose (CMC).
[16] abbreviates: dose: 100.0 mg/kg/injection, schedule: Q01DX001 (ip), vehicle: saline.
Setting [17] is: dose: 200.0 mg/kg/injection, schedule: Q01DX001 (ip), vehicle: saline.
[18] abbreviates: dose: 400.0 mg/kg/injection, schedule: Q01DX001 (ip), vehicle: saline.
The mark [19] stands for this setting: dose: 100.0 mg/kg/injection, schedule: Q04DX003 (ip), vehicle: saline.
Setting [20] is: dose: 200.0 mg/kg/injection, schedule: Q04DX003 (ip), vehicle: saline.
Where [21] appears, read: dose: 400.0 mg/kg/injection, schedule: Q04DX003 (ip), vehicle: saline.

Our source for the T/C values is PubChem BioAssay AID248 (DTP/NCI, 2004).

“And” between values parts separate entries of the source, which are not always exact repeats. Equal values may be shown once. Toxic doses and inconclusive results are not listed.

With `COc1ccc(OCCOC(=O)Nc2ccccc2C(F)(F)F)cc1`, the T/C runs as follows: under setting [1], 105 % of control; under setting [2], 90 % of control; under setting [3], 90 % of control.

Consider `C=CCN(CC=C)C(=O)C(C)O` (stereo not given), for which the T/C by setting is: under setting [4], 103 % of control; under setting [5], 103 % of control; under setting [6], 98 % of control.

With `CCCCCCCCCCCCCC(=O)[O][Sn]([CH2]CCC)([CH2]CCC)[O]C(=O)CCCCCCCCCCCCC`, the T/C was 95 % of control (dose: 0.78 mg/kg/injection, schedule: Q04DX003 (ip), vehicle: other); 98 % of control (dose: 1.56 mg/kg/injection, schedule: Q04DX003 (ip), vehicle: other); 96 % of control (dose: 3.13 mg/kg/injection, schedule: Q04DX003 (ip), vehicle: other); 109 % of control (dose: 6.25 mg/kg/injection, schedule: Q04DX003 (ip), vehicle: other); 101 % of control (dose: 12.5 mg/kg/injection, schedule: Q04DX003 (ip), vehicle: other).

Take `Cc1nc2nc(C(F)(F)F)[nH]c2nc1C`: the T/C is, setting by setting: under setting [7], 98 % of control; under setting [8], 96 % of control and 120 % of control; under setting [9], 101 % of control and 102 % of control.

`O=C(OCCCl)Oc1c(Cl)cc([N+](=O)[O-])cc1[N+](=O)[O-]`: the T/C under setting [1] is 101 % of control, the T/C under setting [2] is 101 % of control and the T/C under setting [3] was 86 % of control.

For `O=C(O)c1ccc(Nc2c3ccccc3nc3ccccc23)cc1`, the T/C was 177 % of control (dose: 50.0 mg/kg/injection, schedule: Q01DX009 (ip), vehicle: Klucel (hydroxypropylcellulose) (HPC)) and 243 % of control under setting [10].

Consider `Cc1ccccc1OCC(O)COC(N)=O` (stereo not given), for which the T/C (dose: 0.62 mg/kg/injection, schedule: Q04DX003 (ip), vehicle: saline) is 100 % of control; the T/C (dose: 1.25 mg/kg/injection, schedule: Q04DX003 (ip), vehicle: saline) was 100 % of control; the T/C (dose: 2.5 mg/kg/injection, schedule: Q04DX003 (ip), vehicle: saline) was 112 % of control; the T/C (dose: 5.0 mg/kg/injection, schedule: Q04DX003 (ip), vehicle: saline) was 98 % of control; the T/C (dose: 10.0 mg/kg/injection, schedule: Q04DX003 (ip), vehicle: saline) was 98 % of control.

With `C[Si](C)(C#CC1(O)CCCCC1)C(Cl)Cl`, the T/C is 102 % of control under setting [1], 101 % of control under setting [2] and 109 % of control under setting [3].

Regarding `BrCc1cccc(C[P+](c2ccccc2)(c2ccccc2)c2ccccc2)c1`, the T/C was 112 % of control (dose: 5.0 mg/kg/injection, schedule: Q01DX001 (ip), vehicle: saline); 114 % of control (dose: 10.0 mg/kg/injection, schedule: Q01DX001 (ip), vehicle: saline); 114 % of control (dose: 20.0 mg/kg/injection, schedule: Q01DX001 (ip), vehicle: saline); 110 % of control under setting [11].

For `Cn1c2c(c3ccccc3c1=O)C(=O)c1ccccc1-2`, the T/C by setting is: under setting [12], 94 % of control; under setting [13], 94 % of control; under setting [14], 91 % of control; under setting [15], 91 % of control.

As for `CCCCCCCCCCCCCCCCCCCCCCCC(=O)NCCc1c[nH]c2ccc(O)cc12` (tested in a mixture with another compound), the T/C is, setting by setting: under setting [4], 96 % of control; under setting [5], 96 % of control; under setting [6], 86 % of control.

With `CCC[n+]1cccc(C#N)c1`, the T/C is 97 % of control (dose: 37.5 mg/kg/injection, schedule: Q04DX003 (ip), vehicle: saline); 94 % of control (dose: 75.0 mg/kg/injection, schedule: Q01DX001 (ip), vehicle: saline); 100 % of control (dose: 75.0 mg/kg/injection, schedule: Q04DX003 (ip), vehicle: saline); 103 % of control (dose: 150.0 mg/kg/injection, schedule: Q01DX001 (ip), vehicle: saline).

Regarding `CC(=O)OCC(COC(C)=O)(OC(COC(C)=O)(COC(C)=O)c1ccc(C)c(C)c1)c1ccc(C)c(C)c1`, the T/C is 97 % of control under setting [11], 100 % of control under setting [16], 97 % of control under setting [17] and 100 % of control under setting [18].

Consider `c1ccc(Oc2ccccc2)cc1`, for which the T/C by setting is: under setting [4], 105 % of control; under setting [5], 101 % of control; under setting [6], 97 % of control.

As to `CN(C)/N=C(\Cc1ccccc1)c1ccccc1`, the T/C was 99 % of control (dose: 100.0 mg/kg/injection, schedule: Q01DX001 (ip), vehicle: Klucel (hydroxypropylcellulose) (HPC)); 99 % of control (dose: 200.0 mg/kg/injection, schedule: Q01DX001 (ip), vehicle: Klucel (hydroxypropylcellulose) (HPC)); 98 % of control (dose: 400.0 mg/kg/injection, schedule: Q01DX001 (ip), vehicle: Klucel (hydroxypropylcellulose) (HPC)).

`CC(O)NC(=O)C1CC2c3cccc4[nH]cc(c34)CC2N(C)C1` (stereo not given): the T/C by setting is: under setting [1], 100 % of control; under setting [2], 97 % of control; under setting [3], 105 % of control.

As for `CCCCOC(=O)c1ccc(NC(=O)Nc2ccc(F)c([N+](=O)[O-])c2)cc1`, the T/C is, setting by setting: under setting [10], 98 % of control; (dose: 200.0 mg/kg/injection, schedule: Q01DX009 (ip), vehicle: Klucel (hydroxypropylcellulose) (HPC)) 95 % of control; (dose: 400.0 mg/kg/injection, schedule: Q01DX009 (ip), vehicle: Klucel (hydroxypropylcellulose) (HPC)) 101 % of control.

Regarding `Cc1ccc(Cl)cc1NC(=O)c1ccc([N+](=O)[O-])cc1`, the T/C was 91 % of control under setting [7] and 86 % of control under setting [8].

As to `CCC(C)NC(=O)Oc1cccc(NC(=O)OC)c1` (stereo not given), the T/C by setting is: under setting [4], 95 % of control; under setting [5], 93 % of control; under setting [6], 92 % of control.

Regarding `CCOP(=O)(OCC)c1cccc(N)c1`, the T/C under setting [19] was 100 % of control, the T/C under setting [20] was 87 % of control and the T/C under setting [21] was 100 % of control.

Consider `COCC1CCCCC1O` (stereo not given), for which the T/C under setting [11] was 101 % of control, the T/C under setting [16] is 95 % of control, the T/C under setting [17] is 101 % of control and the T/C under setting [18] is 98 % of control.

For the molecule `Cc1cc(C(=O)O)c(CN)c(=O)n1C`, the T/C is, setting by setting: (dose: 100.0 mg/kg/injection, schedule: Q04DX003 (ip), vehicle: water) 102 % of control; (dose: 200.0 mg/kg/injection, schedule: Q04DX003 (ip), vehicle: water) 103 % of control; (dose: 400.0 mg/kg/injection, schedule: Q04DX003 (ip), vehicle: water) 102 % of control.

For `O=C1O/C(=C2\OCc3ccccc32)c2ccccc21`, the T/C by setting is: under setting [12], 91 % of control; under setting [13], 107 % of control; under setting [14], 100 % of control; under setting [15], 91 % of control.

On to `O=C(Nc1cc2c(cc1Br)OCO2)C(Cl)Cl`, for which the T/C is 95 % of control under setting [8]; 120 % of control under setting [9]; 92 % of control (dose: 400.0 mg/kg/injection, schedule: Q01DX009 (ip), vehicle: saline with Tween-80).

In the case of `O=C(COc1ccc(Cl)c(Cl)c1)Nc1ccc[n+](Cc2ccc([N+](=O)[O-])cc2)c1`, the T/C is 95 % of control under setting [19], 95 % of control under setting [20] and 104 % of control under setting [21].

On to `O=S(=O)(CCCCCl)Cc1ccccc1`, for which the T/C by setting is: under setting [16], 101 % of control; (dose: 100.0 mg/kg/injection, schedule: Q01DX009 (ip), vehicle: saline) 110 % of control; under setting [19], 104 % of control; under setting [17], 96 % of control; (dose: 200.0 mg/kg/injection, schedule: Q01DX009 (ip), vehicle: saline) 94 % of control; under setting [20], 104 % of control. The T/C was 93 % of control under setting [18]; 103 % of control (dose: 400.0 mg/kg/injection, schedule: Q01DX009 (ip), vehicle: saline); 93 % of control under setting [21].

For `CCOC(=O)NC(=O)n1ncnc1N`, the T/C reads like this: under setting [19], 108 % of control; under setting [20], 103 % of control; under setting [21], 94 % of control.
